target: ErbB2 WT (Homo sapiens (Human), UniProt P04626); experiment: ErbB enzyme assay (CisBio HTRF KinEASE-TK), Assay 2; assay type: biochemical; details: not given
How it was run: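 ErbB2 phosphorylates 250 nM biotin-TK substrate at 1 mM ATP in 25 mM HEPES pH 7.4, 10 mM MgCl2, 0.01% Triton X-100 and 2% DMSO, for 30 min at 22 °C. Product is detected by HTRF with Sa-XL665 and TK-Ab-Cryptate. Percent of control is set by DMSO-only wells and pre-quenched wells.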

ErbB2 WT, sequence (P04626 23-1255): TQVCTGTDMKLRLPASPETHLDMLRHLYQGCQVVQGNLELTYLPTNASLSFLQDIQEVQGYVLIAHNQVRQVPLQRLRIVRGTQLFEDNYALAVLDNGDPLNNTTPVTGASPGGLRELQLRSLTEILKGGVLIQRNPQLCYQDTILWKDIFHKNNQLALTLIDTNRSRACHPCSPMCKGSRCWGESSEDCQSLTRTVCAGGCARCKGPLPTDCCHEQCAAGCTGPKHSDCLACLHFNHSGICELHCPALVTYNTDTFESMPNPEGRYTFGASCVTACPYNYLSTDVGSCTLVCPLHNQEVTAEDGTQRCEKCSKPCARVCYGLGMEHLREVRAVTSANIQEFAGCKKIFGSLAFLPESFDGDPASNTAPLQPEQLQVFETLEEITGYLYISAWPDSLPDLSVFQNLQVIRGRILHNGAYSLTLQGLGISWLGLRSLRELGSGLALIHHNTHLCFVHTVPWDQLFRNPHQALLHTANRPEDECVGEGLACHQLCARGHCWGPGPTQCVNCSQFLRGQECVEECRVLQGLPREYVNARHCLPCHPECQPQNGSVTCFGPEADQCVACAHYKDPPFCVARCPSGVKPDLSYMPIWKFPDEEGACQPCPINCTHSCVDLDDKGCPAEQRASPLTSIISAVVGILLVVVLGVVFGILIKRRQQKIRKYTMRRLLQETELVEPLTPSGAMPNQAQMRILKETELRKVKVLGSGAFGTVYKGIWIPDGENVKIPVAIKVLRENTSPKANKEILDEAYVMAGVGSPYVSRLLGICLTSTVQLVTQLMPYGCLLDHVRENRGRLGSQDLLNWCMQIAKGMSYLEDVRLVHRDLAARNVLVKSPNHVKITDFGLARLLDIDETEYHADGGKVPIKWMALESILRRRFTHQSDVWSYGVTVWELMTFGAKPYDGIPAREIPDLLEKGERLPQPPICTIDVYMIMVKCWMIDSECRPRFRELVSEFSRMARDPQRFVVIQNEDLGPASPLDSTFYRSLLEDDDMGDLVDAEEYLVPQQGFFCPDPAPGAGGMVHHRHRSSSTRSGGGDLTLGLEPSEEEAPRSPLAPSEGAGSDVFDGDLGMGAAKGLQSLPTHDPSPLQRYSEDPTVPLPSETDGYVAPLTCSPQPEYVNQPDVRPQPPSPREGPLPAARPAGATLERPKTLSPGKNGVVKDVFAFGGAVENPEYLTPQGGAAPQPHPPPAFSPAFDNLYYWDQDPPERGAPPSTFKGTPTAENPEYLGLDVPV

| SMILES | IC50 |
| --- | --- |
| Clc1cc(Nc2ncnc3cnc(N4CC[C@@]45CCOC5)nc23)ccc1Oc1ccn2ncnc2c1 [Example 434] | 10.2 nM |
| CON1CCN(c2ncc3ncnc(Nc4ccc(Oc5ccn6ncnc6c5)c(Cl)c4)c3n2)CC1 [Example 436] | 25 nM |
| Cc1c(Oc2ccc3c(c2)ncn3C)ccc(Nc2ncnc3cnc(N(C)CC(C)(C)O)nc23)c1F [Example 438] | 47 nM |
| Cn1cnc2cc(Oc3ccc(Nc4ncnc5cnc(N6C[C@@H]7C[C@H]6CO7)nc45)cc3Cl)ccc21 [Example 440] | 176 nM |
| Cn1cnc2cc(Oc3ccc(Nc4ncnc5cnc(N6C7CCC6COC7)nc45)cc3Cl)ccc21 [Example 441] | 67.2 nM |
| Cn1cnc2cc(Oc3ccc(Nc4ncnc5cnc(N6CC7(CCOC7)C6)nc45)cc3Cl)ccc21 [Example 442] | 180 nM |
| Cn1cnc2cc(Oc3ccc(Nc4ncnc5cnc(N6CCC7(CCOC7)C6)nc45)cc3Cl)ccc21 (stereo not shown) [Example 443] | 104 nM |
| Cn1cnc2cc(Oc3ccc(Nc4ncnc5cnc(N6CC[C@@H](C#N)C6)nc45)cc3Cl)ccc21 [Example 444] | 52.6 nM |
| Cn1cnc2cc(Oc3ccc(Nc4ncnc5cnc(N6CCN[C@H](C(F)(F)F)C6)nc45)cc3Cl)ccc21 [Example 445] | 64.5 nM |
| Cn1cnc2cc(Oc3ccc(Nc4ncnc5cnc(N6C[C@@H]7CC[C@H]6CO7)nc45)cc3Cl)ccc21 [Example 446] | 134 nM |
| Cn1cnc2cc(Oc3ccc(Nc4ncnc5cnc(N6CC7CCC(C6)O7)nc45)cc3Cl)ccc21 [Example 447] | 91 nM |
| Cn1cnc2cc(Oc3ccc(Nc4ncnc5cnc(N6CCOC(C)(C)C6)nc45)cc3Cl)ccc21 [Example 448] | 143 nM |
| Cn1cnc2cc(Oc3ccc(Nc4ncnc5cnc(N6CCOC7(CC7)C6)nc45)cc3Cl)ccc21 [Example 449] | 152 nM |
| C[C@H]1CN(c2ncc3ncnc(Nc4ccc(Oc5ccc6c(c5)ncn6C)c(Cl)c4)c3n2)CCO1 [Example 450] | 55 nM |

target: EGFR (Homo sapiens (Human), UniProt P00533); experiment: ErbB enzyme assay (CisBio HTRF KinEASE-TK), Assay 3; assay type: biochemical; details: not given
How it was run: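 HTRF KinEASE-TK assay: kinase with 250 nM biotinylated TK-substrate and 1 mM ATP in 25 mM HEPES pH 7.4, 10 mM MgCl2, 0.01% Triton X-100, 2% DMSO, 30 min at 22 °C. Quenched with Sa-XL665/TK-Ab-Cryptate, read after 1 h. IC50 from 4-parameter fit of percent of control.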

EGFR, sequence (P00533 25-1210): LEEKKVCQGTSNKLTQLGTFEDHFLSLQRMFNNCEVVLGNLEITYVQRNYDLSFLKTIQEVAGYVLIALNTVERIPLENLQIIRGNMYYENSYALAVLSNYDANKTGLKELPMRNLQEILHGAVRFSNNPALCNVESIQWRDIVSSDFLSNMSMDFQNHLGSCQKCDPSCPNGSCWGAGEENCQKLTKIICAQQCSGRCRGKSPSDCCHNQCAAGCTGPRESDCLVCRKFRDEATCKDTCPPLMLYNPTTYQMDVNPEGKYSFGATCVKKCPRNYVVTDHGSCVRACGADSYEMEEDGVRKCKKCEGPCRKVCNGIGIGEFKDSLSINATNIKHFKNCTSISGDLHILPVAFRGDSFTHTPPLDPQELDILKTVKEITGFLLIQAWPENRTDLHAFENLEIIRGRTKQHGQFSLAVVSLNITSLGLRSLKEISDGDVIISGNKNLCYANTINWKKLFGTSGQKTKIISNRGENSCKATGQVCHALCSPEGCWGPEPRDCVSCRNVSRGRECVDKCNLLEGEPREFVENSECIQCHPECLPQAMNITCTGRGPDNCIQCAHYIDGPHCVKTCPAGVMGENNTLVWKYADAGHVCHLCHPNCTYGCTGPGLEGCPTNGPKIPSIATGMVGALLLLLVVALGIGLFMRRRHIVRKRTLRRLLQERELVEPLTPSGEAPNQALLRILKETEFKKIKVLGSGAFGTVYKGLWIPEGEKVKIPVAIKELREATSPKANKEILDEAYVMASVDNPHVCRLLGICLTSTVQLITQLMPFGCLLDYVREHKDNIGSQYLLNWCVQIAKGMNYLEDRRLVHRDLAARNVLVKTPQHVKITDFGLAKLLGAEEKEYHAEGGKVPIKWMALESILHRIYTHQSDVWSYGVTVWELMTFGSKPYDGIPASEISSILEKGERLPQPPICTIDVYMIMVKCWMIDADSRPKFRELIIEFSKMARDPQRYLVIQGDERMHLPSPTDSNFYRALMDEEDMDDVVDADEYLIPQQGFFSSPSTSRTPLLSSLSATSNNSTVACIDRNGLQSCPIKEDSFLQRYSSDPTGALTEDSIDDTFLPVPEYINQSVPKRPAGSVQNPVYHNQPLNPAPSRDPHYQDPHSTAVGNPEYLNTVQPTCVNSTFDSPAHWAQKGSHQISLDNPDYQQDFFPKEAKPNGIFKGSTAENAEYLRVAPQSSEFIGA

| SMILES | IC50 |
| --- | --- |
| Clc1cc(Nc2ncnc3cnc(N4CC[C@@]45CCOC5)nc23)ccc1Oc1ccn2ncnc2c1 [Example 434] | 760 nM |
| CON1CCN(c2ncc3ncnc(Nc4ccc(Oc5ccn6ncnc6c5)c(Cl)c4)c3n2)CC1 [Example 436] | ≥ 10000 nM |
| Cc1c(Oc2ccc3c(c2)ncn3C)ccc(Nc2ncnc3cnc(N(C)CC(C)(C)O)nc23)c1F [Example 438] | ≥ 10000 nM |
| Cn1cnc2cc(Oc3ccc(Nc4ncnc5cnc(N6C[C@@H]7C[C@H]6CO7)nc45)cc3Cl)ccc21 [Example 440] | ≥ 10000 nM |
| Cn1cnc2cc(Oc3ccc(Nc4ncnc5cnc(N6C7CCC6COC7)nc45)cc3Cl)ccc21 [Example 441] | 9570 nM |
| Cn1cnc2cc(Oc3ccc(Nc4ncnc5cnc(N6CC7(CCOC7)C6)nc45)cc3Cl)ccc21 [Example 442] | ≥ 10000 nM |
| Cn1cnc2cc(Oc3ccc(Nc4ncnc5cnc(N6CCC7(CCOC7)C6)nc45)cc3Cl)ccc21 (stereo not shown) [Example 443] | ≥ 10000 nM |
| Cn1cnc2cc(Oc3ccc(Nc4ncnc5cnc(N6CC[C@@H](C#N)C6)nc45)cc3Cl)ccc21 [Example 444] | ≥ 10000 nM |
| Cn1cnc2cc(Oc3ccc(Nc4ncnc5cnc(N6CCN[C@H](C(F)(F)F)C6)nc45)cc3Cl)ccc21 [Example 445] | 4500 nM |
| Cn1cnc2cc(Oc3ccc(Nc4ncnc5cnc(N6C[C@@H]7CC[C@H]6CO7)nc45)cc3Cl)ccc21 [Example 446] | ≥ 10000 nM |
| Cn1cnc2cc(Oc3ccc(Nc4ncnc5cnc(N6CC7CCC(C6)O7)nc45)cc3Cl)ccc21 [Example 447] | ≥ 10000 nM |
| Cn1cnc2cc(Oc3ccc(Nc4ncnc5cnc(N6CCOC(C)(C)C6)nc45)cc3Cl)ccc21 [Example 448] | ≥ 10000 nM |
| Cn1cnc2cc(Oc3ccc(Nc4ncnc5cnc(N6CCOC7(CC7)C6)nc45)cc3Cl)ccc21 [Example 449] | ≥ 10000 nM |
| C[C@H]1CN(c2ncc3ncnc(Nc4ccc(Oc5ccc6c(c5)ncn6C)c(Cl)c4)c3n2)CCO1 [Example 450] | 4010 nM |

target: EGFR wild type (EGFR WT) (Homo sapiens (Human), UniProt P00533); experiment: Cellular phosphorylation assay, EGF-stimulated EGFR phosphorylation in engineered NIH 3T3 cells, Phospho-EGFR DuoSet IC ELISA, Assay 5; assay type: cell-based; details: not given
How it was run: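 NIH 3T3 cells expressing EGFR WT (20,000/well, attached overnight) were exposed to serially diluted compound for 1 h at 37 °C, then stimulated with 100 ng/ml rEGF for 10 min. Phospho-EGFR in lysates measured by sandwich ELISA optical density; IC50 from curves.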

EGFR wild type (EGFR WT), sequence (P00533 25-1210): as above

| SMILES | IC50 |
| --- | --- |
| Clc1cc(Nc2ncnc3cnc(N4CC[C@@]45CCOC5)nc23)ccc1Oc1ccn2ncnc2c1 [Example 434] | ≥ 5000 nM |
| CON1CCN(c2ncc3ncnc(Nc4ccc(Oc5ccn6ncnc6c5)c(Cl)c4)c3n2)CC1 [Example 436] | ≥ 5000 nM |
| Cc1c(Oc2ccc3c(c2)ncn3C)ccc(Nc2ncnc3cnc(N(C)CC(C)(C)O)nc23)c1F [Example 438] | ≥ 5000 nM |
| Cn1cnc2cc(Oc3ccc(Nc4ncnc5cnc(N6C[C@@H]7C[C@H]6CO7)nc45)cc3Cl)ccc21 [Example 440] | ≥ 5000 nM |
| Cn1cnc2cc(Oc3ccc(Nc4ncnc5cnc(N6C7CCC6COC7)nc45)cc3Cl)ccc21 [Example 441] | ≥ 5000 nM |
| Cn1cnc2cc(Oc3ccc(Nc4ncnc5cnc(N6CC7(CCOC7)C6)nc45)cc3Cl)ccc21 [Example 442] | ≥ 5000 nM |
| Cn1cnc2cc(Oc3ccc(Nc4ncnc5cnc(N6CCC7(CCOC7)C6)nc45)cc3Cl)ccc21 (stereo not shown) [Example 443] | ≥ 5000 nM |
| Cn1cnc2cc(Oc3ccc(Nc4ncnc5cnc(N6CC[C@@H](C#N)C6)nc45)cc3Cl)ccc21 [Example 444] | ≥ 5000 nM |
| Cn1cnc2cc(Oc3ccc(Nc4ncnc5cnc(N6CCN[C@H](C(F)(F)F)C6)nc45)cc3Cl)ccc21 [Example 445] | ≥ 5000 nM |
| Cn1cnc2cc(Oc3ccc(Nc4ncnc5cnc(N6C[C@@H]7CC[C@H]6CO7)nc45)cc3Cl)ccc21 [Example 446] | ≥ 5000 nM |
| Cn1cnc2cc(Oc3ccc(Nc4ncnc5cnc(N6CC7CCC(C6)O7)nc45)cc3Cl)ccc21 [Example 447] | ≥ 5000 nM |
| Cn1cnc2cc(Oc3ccc(Nc4ncnc5cnc(N6CCOC(C)(C)C6)nc45)cc3Cl)ccc21 [Example 448] | ≥ 5000 nM |
| Cn1cnc2cc(Oc3ccc(Nc4ncnc5cnc(N6CCOC7(CC7)C6)nc45)cc3Cl)ccc21 [Example 449] | ≥ 5000 nM |
| C[C@H]1CN(c2ncc3ncnc(Nc4ccc(Oc5ccc6c(c5)ncn6C)c(Cl)c4)c3n2)CCO1 [Example 450] | ≥ 5000 nM |

target: ErbB2 insYVMA (HER2-YVMA, SEQ ID NO: 2) (Homo sapiens, UniProt P04626, INS775YVMA/P1170A); experiment: biochemical; details: Assay 1 IC50 (nM), ErbB2 insYVMA enzyme assay

| SMILES | IC50 |
| --- | --- |
| Cn1cnc2cc(Oc3ccc(Nc4ncnc5cnc(N6C[C@@H]7C[C@H]6CO7)nc45)cc3Cl)ccc21 [Example 440] | 48.7 nM |
| Cn1cnc2cc(Oc3ccc(Nc4ncnc5cnc(N6C7CCC6COC7)nc45)cc3Cl)ccc21 [Example 441] | 106 nM |
| Cn1cnc2cc(Oc3ccc(Nc4ncnc5cnc(N6CC7(CCOC7)C6)nc45)cc3Cl)ccc21 [Example 442] | 69.5 nM |
| Cn1cnc2cc(Oc3ccc(Nc4ncnc5cnc(N6CCC7(CCOC7)C6)nc45)cc3Cl)ccc21 (stereo not shown) [Example 443] | 60.1 nM |
| Cn1cnc2cc(Oc3ccc(Nc4ncnc5cnc(N6CC7CCC(C6)O7)nc45)cc3Cl)ccc21 [Example 447] | 46.8 nM |

same assay, conditions: ErbB2 insYVMA enzyme assay; read-out: Assay 1 IC50

| SMILES | IC50 |
| --- | --- |
| Clc1cc(Nc2ncnc3cnc(N4CC[C@@]45CCOC5)nc23)ccc1Oc1ccn2ncnc2c1 [Example 434] | 8.4 nM |
| CON1CCN(c2ncc3ncnc(Nc4ccc(Oc5ccn6ncnc6c5)c(Cl)c4)c3n2)CC1 [Example 436] | 15.4 nM |
| Cc1c(Oc2ccc3c(c2)ncn3C)ccc(Nc2ncnc3cnc(N(C)CC(C)(C)O)nc23)c1F [Example 438] | 27.4 nM |
| Cn1cnc2cc(Oc3ccc(Nc4ncnc5cnc(N6CC[C@@H](C#N)C6)nc45)cc3Cl)ccc21 [Example 444] | 24.3 nM |
| Cn1cnc2cc(Oc3ccc(Nc4ncnc5cnc(N6CCN[C@H](C(F)(F)F)C6)nc45)cc3Cl)ccc21 [Example 445] | 65 nM |
| Cn1cnc2cc(Oc3ccc(Nc4ncnc5cnc(N6C[C@@H]7CC[C@H]6CO7)nc45)cc3Cl)ccc21 [Example 446] | 20.7 nM |
| Cn1cnc2cc(Oc3ccc(Nc4ncnc5cnc(N6CCOC(C)(C)C6)nc45)cc3Cl)ccc21 [Example 448] | 75.9 nM |
| Cn1cnc2cc(Oc3ccc(Nc4ncnc5cnc(N6CCOC7(CC7)C6)nc45)cc3Cl)ccc21 [Example 449] | 157 nM |
| C[C@H]1CN(c2ncc3ncnc(Nc4ccc(Oc5ccc6c(c5)ncn6C)c(Cl)c4)c3n2)CCO1 [Example 450] | 26.1 nM |

target: ErbB2 with Exon 20 YVMA insertion (HER2-YVMA) (Homo sapiens (Human), UniProt P04626, INS775YVMA); experiment: Cellular phosphorylation assay, constitutive ErbB2 phosphorylation (Y1196) in engineered NIH 3T3 cells, Assay 4; assay type: cell-based; details: not given
How it was run: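 Engineered NIH 3T3 cells expressing HER2-YVMA treated with compounds 1 h at 37 °C, then formaldehyde-fixed and methanol-permeabilized. pErbB2 Y1196 detected by in-cell infrared immunofluorescence, normalized to GAPDH. IC50 from the normalized curves.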

ErbB2 with Exon 20 YVMA insertion (HER2-YVMA), sequence (P04626 other isoform, or with tags, fused parts or gaps ins YVMA behind 775): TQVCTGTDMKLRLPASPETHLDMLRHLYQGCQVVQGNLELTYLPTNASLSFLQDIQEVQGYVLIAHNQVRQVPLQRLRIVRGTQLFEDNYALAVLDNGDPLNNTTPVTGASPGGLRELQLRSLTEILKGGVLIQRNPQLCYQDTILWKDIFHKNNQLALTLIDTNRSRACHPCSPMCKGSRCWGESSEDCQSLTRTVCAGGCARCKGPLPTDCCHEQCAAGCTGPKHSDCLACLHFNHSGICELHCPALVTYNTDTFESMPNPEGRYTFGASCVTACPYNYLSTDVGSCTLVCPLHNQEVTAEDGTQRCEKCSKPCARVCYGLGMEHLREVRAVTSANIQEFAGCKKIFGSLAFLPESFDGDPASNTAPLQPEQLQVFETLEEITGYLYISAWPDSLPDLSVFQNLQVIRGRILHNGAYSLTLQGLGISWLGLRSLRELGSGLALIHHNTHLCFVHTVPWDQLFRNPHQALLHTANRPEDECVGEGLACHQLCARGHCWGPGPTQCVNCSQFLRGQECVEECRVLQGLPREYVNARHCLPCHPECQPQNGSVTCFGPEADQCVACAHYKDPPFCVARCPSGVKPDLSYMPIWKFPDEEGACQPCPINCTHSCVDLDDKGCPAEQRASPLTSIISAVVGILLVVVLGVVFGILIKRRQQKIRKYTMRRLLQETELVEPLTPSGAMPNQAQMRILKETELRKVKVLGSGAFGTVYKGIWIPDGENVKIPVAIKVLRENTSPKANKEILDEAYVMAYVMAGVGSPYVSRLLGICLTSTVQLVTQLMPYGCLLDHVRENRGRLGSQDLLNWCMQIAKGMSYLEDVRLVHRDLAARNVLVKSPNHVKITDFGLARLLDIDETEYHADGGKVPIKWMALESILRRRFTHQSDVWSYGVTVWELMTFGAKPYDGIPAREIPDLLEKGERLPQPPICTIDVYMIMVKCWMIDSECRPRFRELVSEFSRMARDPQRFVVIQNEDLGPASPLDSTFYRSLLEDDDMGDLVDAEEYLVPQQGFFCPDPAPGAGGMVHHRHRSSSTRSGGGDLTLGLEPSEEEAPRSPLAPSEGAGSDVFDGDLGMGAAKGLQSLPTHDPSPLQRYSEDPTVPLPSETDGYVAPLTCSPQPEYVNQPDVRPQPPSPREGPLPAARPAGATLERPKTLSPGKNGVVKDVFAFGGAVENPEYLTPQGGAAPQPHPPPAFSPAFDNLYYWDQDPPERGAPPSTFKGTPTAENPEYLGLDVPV

| SMILES | IC50 |
| --- | --- |
| Clc1cc(Nc2ncnc3cnc(N4CC[C@@]45CCOC5)nc23)ccc1Oc1ccn2ncnc2c1 [Example 434] | 161 nM |
| CON1CCN(c2ncc3ncnc(Nc4ccc(Oc5ccn6ncnc6c5)c(Cl)c4)c3n2)CC1 [Example 436] | 61.1 nM |
| Cc1c(Oc2ccc3c(c2)ncn3C)ccc(Nc2ncnc3cnc(N(C)CC(C)(C)O)nc23)c1F [Example 438] | 134 nM |
| Cn1cnc2cc(Oc3ccc(Nc4ncnc5cnc(N6C[C@@H]7C[C@H]6CO7)nc45)cc3Cl)ccc21 [Example 440] | 58.2 nM |
| Cn1cnc2cc(Oc3ccc(Nc4ncnc5cnc(N6C7CCC6COC7)nc45)cc3Cl)ccc21 [Example 441] | 89.1 nM |
| Cn1cnc2cc(Oc3ccc(Nc4ncnc5cnc(N6CC7(CCOC7)C6)nc45)cc3Cl)ccc21 [Example 442] | 105 nM |
| Cn1cnc2cc(Oc3ccc(Nc4ncnc5cnc(N6CCC7(CCOC7)C6)nc45)cc3Cl)ccc21 (stereo not shown) [Example 443] | 37.7 nM |
| Cn1cnc2cc(Oc3ccc(Nc4ncnc5cnc(N6CC[C@@H](C#N)C6)nc45)cc3Cl)ccc21 [Example 444] | 41.7 nM |
| Cn1cnc2cc(Oc3ccc(Nc4ncnc5cnc(N6CCN[C@H](C(F)(F)F)C6)nc45)cc3Cl)ccc21 [Example 445] | 44.2 nM |
| Cn1cnc2cc(Oc3ccc(Nc4ncnc5cnc(N6C[C@@H]7CC[C@H]6CO7)nc45)cc3Cl)ccc21 [Example 446] | 123 nM |
| Cn1cnc2cc(Oc3ccc(Nc4ncnc5cnc(N6CC7CCC(C6)O7)nc45)cc3Cl)ccc21 [Example 447] | 12.2 nM |
| Cn1cnc2cc(Oc3ccc(Nc4ncnc5cnc(N6CCOC(C)(C)C6)nc45)cc3Cl)ccc21 [Example 448] | 40.8 nM |
| Cn1cnc2cc(Oc3ccc(Nc4ncnc5cnc(N6CCOC7(CC7)C6)nc45)cc3Cl)ccc21 [Example 449] | 6.2 nM |
| C[C@H]1CN(c2ncc3ncnc(Nc4ccc(Oc5ccc6c(c5)ncn6C)c(Cl)c4)c3n2)CCO1 [Example 450] | 13.4 nM |
